Laboratory results published in patent US20100029612A1, “2-Aminoethyl Substituted Pyrimidin-2-Ones Cyclopropanes, Pyrazolines, Pyrimidines and Benzothiazepines and Their Uses as Urotensin II and Somatostatin 5 Receptor Ligands” (priority 2003, published 2010).

Assays:
UII receptor = molecular target: T1, UII receptor (Homo sapiens, UniProt Q9UKP6); assay: R-SAT functional mammalian cell-based agonist assay, UII receptor; details: for selectivity UII versus SST5 receptor (in words): UII and SST5 receptors; for UII Eff.: agonist efficacy; for UII Eff. / EC50 / UII pEC50: transfected NIH3T3 cells; for EC50 / UII pEC50: agonist; for EC50: read-out: UII pEC50 (converted); for agonist activity at the UII receptor (in words): potency similar to AC-7954
T1 construct: expressed in transfected cells; host or cells: NIH3T3 cells, receptor plasmid in PSI Mammalian Expression Vector (PROMEGA)
T1 sequence (Q9UKP6 1-389): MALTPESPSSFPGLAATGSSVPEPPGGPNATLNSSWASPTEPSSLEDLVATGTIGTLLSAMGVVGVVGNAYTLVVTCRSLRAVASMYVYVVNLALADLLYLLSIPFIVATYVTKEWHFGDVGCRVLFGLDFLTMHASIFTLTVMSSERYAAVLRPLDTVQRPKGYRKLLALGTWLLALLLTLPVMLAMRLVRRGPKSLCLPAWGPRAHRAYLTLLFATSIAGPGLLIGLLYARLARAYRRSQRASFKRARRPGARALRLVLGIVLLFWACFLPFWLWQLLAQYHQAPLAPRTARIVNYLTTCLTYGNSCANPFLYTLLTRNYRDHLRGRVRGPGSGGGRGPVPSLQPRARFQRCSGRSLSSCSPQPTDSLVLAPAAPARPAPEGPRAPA
Experimental: (§1) The compounds I to VI were tested as agonist at the UII and SST5 receptors in the functional mammalian cell-based assay R-SAT, described in U.S. Pat. Nos. 5,707,798, 5,912,132, and 5,955,281.
(§2) R-SAT assays were performed using NIH3T3 cells grown in tissue culture treated rollerbottles to 40-50% confluence. Cells were transfected for 12-16 hours with plasmid DNAs using SUPERFECT (QIAGEN) as per manufacture's protocols. R-SAT's were generally performed with 10 μg/rollerbottle of receptor and 50 μg/rollerbottle of beta-galactosidase plasmid DNA. All receptor and G-protein constructs used were in the PSI Mammalian Expression Vector (PROMEGA). The transfected cells were then trypsinized and frozen in DMEM containing 10% DMSO. Frozen cells were later thawed, plated at 10,000-40,000 cells per well of a 96½ area plate that contained drug. Cells were then grown in a humidified atmosphere with 5% ambient CO2 for five days. Media was then removed from the plates and marker gene activity was measured by the addition of the beta-galactosidase substrate ONPG (in PBS with 5% NP-40). The resulting colorimetric reaction was measured in a spectrophotometric plate reader (Titertek Inc.) at […].

SST5 receptor = molecular target: T2, SST5 receptor (Homo sapiens, UniProt P35346); assay: R-SAT functional mammalian cell-based agonist assay, SST5 receptor; details: transfected NIH3T3 cells; for SST5 Eff.: agonist efficacy; for EC50: agonist, read-out: SST5 pEC50 (converted)
T2 construct: expressed in transfected cells; host or cells: NIH3T3 cells, receptor plasmid in PSI Mammalian Expression Vector (PROMEGA)
T2 sequence (P35346 whole entry): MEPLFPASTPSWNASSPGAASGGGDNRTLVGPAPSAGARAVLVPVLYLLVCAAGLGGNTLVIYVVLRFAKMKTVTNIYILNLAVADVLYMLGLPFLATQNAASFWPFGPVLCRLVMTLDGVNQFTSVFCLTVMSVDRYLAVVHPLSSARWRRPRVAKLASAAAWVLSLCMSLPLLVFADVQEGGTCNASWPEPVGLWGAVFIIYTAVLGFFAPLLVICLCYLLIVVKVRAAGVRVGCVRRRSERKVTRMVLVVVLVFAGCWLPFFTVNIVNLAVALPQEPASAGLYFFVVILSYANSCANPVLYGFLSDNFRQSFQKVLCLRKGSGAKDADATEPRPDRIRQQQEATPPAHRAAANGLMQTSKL
Experimental: as §1, §2

[1] = Stability to oxidation by air during storage; assay type: physicochemical
Experimental: A pyrazoline scaffold was prepared by the condensation of compound of formula VI of Example 1 with methylhydrazine in the presence of L-InCl3. […] The stereochemistry of the major isomer was confirmed as having an anti-configuration by the strong interaction between […] in the diethylamino chain and by the absence of any NOESY correlation between H4 (3.56 ppm) and H5 (3.98 ppm). […]

| UII Eff. (UII receptor) | EC50 (UII receptor) | agonist activity at the UII receptor (in words) (UII receptor) | SST5 Eff. (SST5 receptor) | EC50 (SST5 receptor) | UII pEC50 (UII receptor) | melting point | SMILES | selectivity UII versus SST5 receptor (in words) (UII receptor) | stability of the pyrazoline core to oxidation by air [1] |
| --- | --- | --- | --- | --- | --- | --- | --- | --- | --- |
| 68 | 6.31 µM | partial to full agonists |  |  |  |  | CCN(CC)CCC1=C(c2ccccc2)NC(=O)N(C)C1c1ccc(Cl)cc1 (stereo not drawn) [I] | selective UII agonists |  |
| 35 | 1.58 µM | partial to full agonists | 41 | 6.31 µM |  |  | CCN(CC)CCC(=Cc1ccc(Cl)cc1)C(=O)c1ccccc1 (mixture of isomers) [Starting material] | activity at both the UII and SST5 receptors |  |
| 31 |  | partial to full agonists |  |  | 5.4 |  | CCN(CC)CCC1C(c2ccccc2)=NN(C)C1c1ccc(Cl)cc1 (mixture of isomers) [III, anti/syn-5-(4-Chloro-phenyl)-4-(2-diethylamino-ethyl)-1-methyl-3-phenyl-4,5-dihydro-1H-pyrazole] | selective UII agonists | stable to oxidation by air during storage |
| 92 | 5.01 µM | partial to full agonists | 60 | 10 µM |  |  | CCN(CC)CC[C@@H]1C(c2ccccc2)=Nc2ccccc2S[C@H]1c1ccc(Cl)cc1 (relative stereo) [V, anti-2-(4-Chloro-phenyl)-3-(2-diethylamino-ethyl)-4-phenyl-2,3-dihydro-benzo-[b]-[1,4]-thiazepine] | activity at both the UII and SST5 receptors |  |
| 120 |  |  |  |  | 5.7 |  | CN(C)CCC1(c2ccc(Cl)cc2)Cc2ccccc2C(=O)O1 (stereo not drawn) [AC-7954, reference compound] |  |  |
|  |  |  |  |  |  | 90.5 to 92.3 °C | CCN(CC)CCc1c(-c2ccccc2)nc(-c2ccccc2)nc1-c1ccc(Cl)cc1 [IV, 4-(4-Chloro-phenyl)-5-(2-diethylamino-ethyl)-2,6-diphenyl-pyrimidine] |  |  |
